Measurements from patent US20150105252A1, “SUBSTITUTED PYRAZOLES AS HERBICIDES” (E I DU PONT DE NEMOURS AND COMPANY, priority 2013, published 2015).

Columns and labels:
pigweed = test: Test C postemergence; assay type: in vivo, Amaranthus retroflexus
Method in brief: (§1)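 Greenhouse pot test: preemergence application onto freshly seeded loam/sand mix, postemergence application onto seedlings (1–4 leaves, 2–18 cm) in peat-vermiculite substrate. Responses scored visually 13 to 15 days later relative to controls, where 0 means no effect and 100 means complete control; a dash indicates no result.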

oat, wild = test: Test C postemergence; assay type: in vivo, Avena fatua
Method in brief: as §1

foxtail, giant = test: Test C postemergence; assay type: in vivo, Setaria faberii
Method in brief: as §1

lambsquarters [1] = test: Test C postemergence; assay type: in vivo, Chenopodium album
Method in brief: as §1

chickweed = test: Test C postemergence; assay type: in vivo, Stellaria media
Method in brief: as §1

morningglory = test: Test C postemergence; assay type: in vivo, Ipomoea coccinea
Method in brief: as §1

galium = test: Test C postemergence; assay type: in vivo, Galium aparine
Method in brief: as §1

nutsedge, yellow = test: Test C postemergence; assay type: in vivo, Cyperus esculentus
Method in brief: as §1

kochia = test: Test C postemergence; assay type: in vivo, Kochia scoparia
Method in brief: as §1

velvetleaf = test: Test C postemergence; assay type: in vivo, Abutilon theophrasti
Method in brief: as §1

ragweed = test: Test C postemergence; assay type: in vivo, Ambrosia elation
Method in brief: as §1

barnyardgrass = test: Test C postemergence; assay type: in vivo, Echinochloa crus-galli
Method in brief: as §1

soybean = test: Test C postemergence; assay type: in vivo, Glycine max
Method in brief: as §1

lambsquarters [2] = test: Test C preemergence; assay type: in vivo, Chenopodium album
Method in brief: as §1

ryegrass, Italian = test: Test C postemergence; assay type: in vivo, Lolium multiflorum
Method in brief: as §1

waterhemp = test: Test C postemergence; assay type: in vivo, Amaranthus rudis
Method in brief: as §1

[3] = Postemergence, 31 g ai/ha, visually evaluated after 13 to 15 days
[4] = postemergence, 62 g ai/ha, scale 0 to 100
[5] = postemergence, 250 g ai/ha, scale 0 to 100 (0 no effect, 100 complete control)
[6] = postemergence, 125 g ai/ha, scale 0 to 100, 0 no effect, 100 complete control

SMILES: CCc1cc(C(=O)NC(C)C)nn1Cc1ccnc(C(F)(F)F)c1 [Compound 103]
- Plant response rating (scale of 0 to 100 where 0 is no effect and 100 is complete control), Pigweed (pigweed; [3]): 50
- Pigweed plant response rating (pigweed; [4]): 50
- Plant response rating, Pigweed (pigweed; [5]): 80
- Plant response rating, Pigweed (pigweed; [6]): 65
- Plant response rating (scale of 0 to 100 where 0 is no effect and 100 is complete control), Oat, Wild (oat, wild; [3]): 5
- Oat, Wild plant response rating (oat, wild; [4]): 5
- Plant response rating, Oat, Wild (oat, wild; [5]): 50
- Plant response rating, Oat, Wild (oat, wild; [6]): 50
- Plant response rating (scale of 0 to 100 where 0 is no effect and 100 is complete control), Foxtail, Giant (foxtail, giant; [3]): 40
- Foxtail, Giant plant response rating (foxtail, giant; [4]): 40
- Plant response rating, Foxtail, Giant (foxtail, giant; [5]): 90
- Plant response rating, Foxtail, Giant (foxtail, giant; [6]): 60
- Plant response rating (scale of 0 to 100 where 0 is no effect and 100 is complete control), Lambsquarters (lambsquarters [1]; [3]): 65
- Lambsquarters plant response rating (lambsquarters [1]; [4]): 70
- Plant response rating, Lambsquarters (lambsquarters [1]; [5]): 90
- Plant response rating, Lambsquarters (lambsquarters [1]; [6]): 75
- Plant response rating (scale of 0 to 100 where 0 is no effect and 100 is complete control), Chickweed (chickweed; [3]): 50
- Chickweed plant response rating (chickweed; [4]): 60
- Plant response rating, Chickweed (chickweed; [5]): 85
- Plant response rating, Chickweed (chickweed; [6]): 75
- Plant response rating (scale of 0 to 100 where 0 is no effect and 100 is complete control), Morningglory (morningglory; [3]): 75
- Morningglory plant response rating (morningglory; [4]): 75
- Plant response rating, Morningglory (morningglory; [5]): 100
- Plant response rating, Morningglory (morningglory; [6]): 85
- Plant response rating (scale of 0 to 100 where 0 is no effect and 100 is complete control), Galium (galium; [3]): 50
- Galium plant response rating (galium; [4]): 70
- Plant response rating, Galium (galium; [5]): 80
- Plant response rating, Galium (galium; [6]): 75
- Plant response rating (scale of 0 to 100 where 0 is no effect and 100 is complete control), Nutsedge, Yellow (nutsedge, yellow; [3]): 10
- Nutsedge, Yellow plant response rating (nutsedge, yellow; [4]): 10
- Plant response rating, Nutsedge, Yellow (nutsedge, yellow; [5]): 20
- Plant response rating, Nutsedge, Yellow (nutsedge, yellow; [6]): 10
- Plant response rating (scale of 0 to 100 where 0 is no effect and 100 is complete control), Kochia (kochia; [3]): 85
- Kochia plant response rating (kochia; [4]): 85
- Plant response rating, Kochia (kochia; [5]): 90
- Plant response rating, Kochia (kochia; [6]): 85
- Plant response rating (scale of 0 to 100 where 0 is no effect and 100 is complete control), Velvetleaf (velvetleaf; [3]): 25
- Velvetleaf plant response rating (velvetleaf; [4]): 40
- Plant response rating, Velvetleaf (velvetleaf; [5]): 55
- Plant response rating, Velvetleaf (velvetleaf; [6]): 45
- Plant response rating (scale of 0 to 100 where 0 is no effect and 100 is complete control), Ragweed (ragweed; [3]): 35
- Ragweed plant response rating (ragweed; [4]): 70
- Plant response rating, Ragweed (ragweed; [5]): 90
- Plant response rating, Ragweed (ragweed; [6]): 80
- Plant response rating (scale of 0 to 100 where 0 is no effect and 100 is complete control), Barnyardgrass (barnyardgrass; [3]): 10
- Barnyardgrass plant response rating (barnyardgrass; [4]): 15
- Plant response rating, Barnyardgrass (barnyardgrass; [5]): 95
- Plant response rating, Barnyardgrass (barnyardgrass; [6]): 15
- Plant response rating (scale of 0 to 100 where 0 is no effect and 100 is complete control), Soybean (soybean; [3]): 45
- Soybean plant response rating (soybean; [4]): 70
- Plant response rating, Soybean (soybean; [5]): 98
- Plant response rating, Soybean (soybean; [6]): 95
- Plant response rating (scale of 0 to 100), Lambsquarters (lambsquarters [2]; Preemergence, 250 g ai/ha): 100
- Lambsquarters plant response rating (lambsquarters [2]; preemergence, 31 g ai/ha, visual rating, scale 0 to 100 (0 no effect, 100 complete control), 13 to 15 days): 100
- Plant response rating, Lambsquarters (lambsquarters [2]; preemergence, 62 g ai/ha, 13 to 15 days, scale 0 to 100, 0 = no effect, 100 = complete control): 100
- Lambsquarters plant response rating (lambsquarters [2]; preemergence, 125 g ai/ha, scale 0 to 100, 0 is no effect, 100 is complete control): 100
- Plant response rating (scale of 0 to 100 where 0 is no effect and 100 is complete control), Ryegrass, Italian (ryegrass, Italian; [3]): 5
- Ryegrass, Italian plant response rating (ryegrass, Italian; [4]): 5
- Plant response rating, Ryegrass, Italian (ryegrass, Italian; [5]): 45
- Plant response rating, Ryegrass, Italian (ryegrass, Italian; [6]): 5
- Plant response rating (scale of 0 to 100 where 0 is no effect and 100 is complete control), Waterhemp (waterhemp; [3]): 55
- Waterhemp plant response rating (waterhemp; [4]): 65
- Plant response rating, Waterhemp (waterhemp; [5]): 90
- Plant response rating, Waterhemp (waterhemp; [6]): 65
